# Assay results: US10245249B2, “Pharmaceutical compositions comprising nitroxyl donors” (Cardioxyl Pharmaceuticals, Inc., priority 2013, dated 2019)
# Legend:
# healthy volunteers = test: 24-hour continuous infusion dose escalation safety study in healthy volunteers; format: in vivo, human
# Procedure: To determine whether a local phlebitis would occur in humans upon longer duration dosing, a longer duration study was conducted in healthy volunteers. The longer duration study included a dose escalation study in which cohorts of 10 volunteers were to be sequentially administered a 24-hour continuous infusion of CXL-1020 at the dose rates of 10, 20, and 30 μg/kg/min with a safety assessment between each cohort. Each cohort consisted of 2 placebo and 8 active treatments with a sentinel pair of 1 active and 1 placebo followed by the main group of 1 placebo and 7 active treatments. The infusion was via a percutaneous catheter inserted into a forearm vein. The catheter was switched to the contralateral arm after 12 hours of infusion.
# dogs = test: 14-day continuous infusion tolerance studies of CXL-1020 in dogs; format: in vivo
# Procedure: During in vivo trials of the nitroxyl donor CXL-1020 (N-hydroxy-2-methanesulfonylbenzene-1-sulfonamide), a 14-day study was conducted to evaluate tolerance in dogs treated with continuous infusions of CXL-1020 at dose rates of up to 90 μg/kg/min.
# To further investigate this undesirable side-effect, a follow-up 14-day study in dogs was initiated.
# [1] = Stability of dosing solutions of compound of formula (2) stored at 25° C. (Example 11); format: physicochemical
# Procedure: A series of dosing solutions of the compound of formula (2) for IV administration was assessed. The selected concentrate of compound of formula (2), prepared at 30 mg/mL in a vehicle of 30% CAPTISOL® at pH 4.0, was evaluated at low, mid, and high concentrations (0.1, 1 and 5 mg/mL, respectively) upon dilution into various dosing solutions. For dilution of the compound of formula (2) to 0.1 and 1 mg/mL, three dosing solutions were evaluated; 1) D5W, 2) D5W with 5 mM K-phosphate (pH=6), and 3) D5W with 20 mM K-phosphate (pH=6). To maintain iso-osmolality for dilutions of the compound of formula (2) to 5 mg/mL, the concentration of dextrose in the dosing solutions was reduced to 2.5% (w/v). Thus, the dosing solutions evaluated were; (1) D2.5W, (2) D2.5W with 5 mM K-phosphate (pH=6), and (3) D2.5W with 20 mM K-phosphate (pH=6).
# The potential dosing solutions were assessed for visual appearance, pH, osmolality, and concentration and purity by HPLC (XBridge Phenyl Column (Waters); UV absorbance detector at 272 nm; mobile phase a step gradient of aqueous acetonitrile containing 0.1% (v/v) formic acid) after approximately 0, 16, 24, and 48 hours of storage at 25° C. […] In addition, the known degradant, the compound of formula (101), formed by release of the active HNO group, was observed after 16 hours at 25° C. in small quantities by HPLC in the dosing solutions containing phosphate buffer. […]
Structure (SMILES),tolerability (healthy volunteers; 10 μg/kg/min for 24-hours),adverse findings (healthy volunteers; 20 μg/kg/min for 24-hours),"dose rate tolerated (dogs; 14-day continuous infusion, dogs) [µg/kg/min]","side effects in follow-up 14-day study (dogs; dog, in vivo)",osmolality ([1]; 1 mg/mL in D5W with 20 mM phosphate),"visual appearance ([1]; 5 mg/mL in D2.5W with 5 mM phosphate (pH 6.0), after 48 hours at 25° C.)"
"CS(=O)(=O)c1ccccc1S(=O)(=O)NO [CXL-1020, N-hydroxy-2-methanesulfonylbenzene-1-sulfonamide, reference compound]",well tolerated,mild findings (either clinical signs and/or changes in clinical pathology) in all 8 subjects consistent with infusion site phlebitis,60,significant swelling and inflammation in the dogs' hind limbs,–,–
"CS(=O)(=O)c1cccc(S(=O)(=O)NO)c1 [Compound 2, N-Hydroxy-3-methanesulfonylbenzene-1-sulfonamide]",–,–,–,–,approximately 350 mOsm/kg,"clear, light yellow"
